Broadly, the IC50 is the concentration that inhibits the measured activity by half.

One test deals with recombinant human HDAC1 (Homo sapiens (Human), UniProt Q13547). Description: Enzymatic screening, HDAC1 inhibition (fluorogenic FdL_G substrate). Type of test: biochemical. The essentials:
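Recombinant human HDAC1 inhibition was measured fluorometrically using the FLUOR DE LYS-Green (FdL_G) substrate. Compounds at 8 doses (1% DMSO final) in Tris-HCl pH 8 buffer with NaCl, Tween-20 and glycerol were preincubated in triplicate with enzyme and 1 mg/mL BSA, then given substrate. Developer I plus 2 μM TSA was added, and fluorescence read after 25 minutes in the dark.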

The target in another test is recombinant human HDAC6 (Homo sapiens (Human), UniProt Q9UBN7). Briefly: Enzymatic screening, HDAC6 inhibition (fluorogenic FdL_G substrate). Format: biochemical. The essentials: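 Enzyme was preincubated with compound (8 doses, triplicate, 1% DMSO) in 25 mM Tris-HCl pH 8, 130 mM NaCl, 0.05% Tween-20, 10% glycerol, with BSA. A FLUOR DE LYS-Green substrate was then added, and fluorescence was read after developer plus 2 μM TSA.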
Chain of recombinant human HDAC6 (Q9UBN7 whole entry): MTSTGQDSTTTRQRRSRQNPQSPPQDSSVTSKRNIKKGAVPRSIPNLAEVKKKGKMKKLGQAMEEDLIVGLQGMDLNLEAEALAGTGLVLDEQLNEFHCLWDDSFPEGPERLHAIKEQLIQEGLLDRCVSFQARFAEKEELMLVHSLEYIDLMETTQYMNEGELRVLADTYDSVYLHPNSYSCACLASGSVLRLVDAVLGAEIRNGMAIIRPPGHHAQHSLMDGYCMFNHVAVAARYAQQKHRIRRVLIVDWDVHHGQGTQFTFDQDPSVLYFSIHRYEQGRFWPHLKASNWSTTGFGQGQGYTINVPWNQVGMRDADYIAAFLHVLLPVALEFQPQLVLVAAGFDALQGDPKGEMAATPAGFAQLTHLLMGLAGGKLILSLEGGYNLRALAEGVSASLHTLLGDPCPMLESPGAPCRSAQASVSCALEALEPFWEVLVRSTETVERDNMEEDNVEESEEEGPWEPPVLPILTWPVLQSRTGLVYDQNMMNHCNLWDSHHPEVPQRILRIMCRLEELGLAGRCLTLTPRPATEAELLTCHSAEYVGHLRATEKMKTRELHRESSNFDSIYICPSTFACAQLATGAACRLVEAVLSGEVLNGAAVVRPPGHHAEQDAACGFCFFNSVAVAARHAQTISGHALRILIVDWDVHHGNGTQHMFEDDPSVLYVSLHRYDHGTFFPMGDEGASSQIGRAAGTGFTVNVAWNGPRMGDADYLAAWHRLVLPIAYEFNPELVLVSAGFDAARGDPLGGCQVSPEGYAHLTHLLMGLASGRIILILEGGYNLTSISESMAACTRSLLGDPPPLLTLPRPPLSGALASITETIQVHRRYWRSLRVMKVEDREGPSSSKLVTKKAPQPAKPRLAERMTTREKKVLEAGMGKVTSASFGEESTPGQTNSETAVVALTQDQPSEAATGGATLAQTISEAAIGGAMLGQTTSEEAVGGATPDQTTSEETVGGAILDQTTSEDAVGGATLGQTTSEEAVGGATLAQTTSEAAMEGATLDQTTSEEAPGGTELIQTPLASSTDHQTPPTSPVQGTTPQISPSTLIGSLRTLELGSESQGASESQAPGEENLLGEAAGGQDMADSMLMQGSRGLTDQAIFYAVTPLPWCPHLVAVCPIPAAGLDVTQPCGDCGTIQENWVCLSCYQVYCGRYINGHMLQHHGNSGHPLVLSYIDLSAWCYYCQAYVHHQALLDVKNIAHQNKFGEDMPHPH

Chain of recombinant human HDAC1 (Q13547 whole entry): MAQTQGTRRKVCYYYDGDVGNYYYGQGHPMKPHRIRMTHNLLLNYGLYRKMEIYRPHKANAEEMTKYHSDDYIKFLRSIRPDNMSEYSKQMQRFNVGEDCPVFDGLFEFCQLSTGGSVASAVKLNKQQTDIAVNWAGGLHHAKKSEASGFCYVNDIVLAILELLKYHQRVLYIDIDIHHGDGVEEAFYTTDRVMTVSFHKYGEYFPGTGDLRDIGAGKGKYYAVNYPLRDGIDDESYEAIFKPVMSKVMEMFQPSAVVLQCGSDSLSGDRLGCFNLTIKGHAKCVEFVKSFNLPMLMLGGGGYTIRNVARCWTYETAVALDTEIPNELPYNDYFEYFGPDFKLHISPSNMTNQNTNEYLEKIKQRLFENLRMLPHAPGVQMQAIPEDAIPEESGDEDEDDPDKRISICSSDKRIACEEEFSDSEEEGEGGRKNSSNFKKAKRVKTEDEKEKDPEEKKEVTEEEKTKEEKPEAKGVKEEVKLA

On to `Nc1ccc(-c2nnnn2Cc2ncc(-c3nnc(C(F)F)o3)cn2)cn1` [compound 290, 5-(1-((5-(5-(difluoromethyl)-1,3,4-oxadiazol-2-yl)pyrimidin-2-yl)methyl)-1H-tetrazol-5-yl)pyridin-2-amine], for which the IC50 on recombinant human HDAC1 is greater than 200 µM; at recombinant human HDAC6 it was 0.068 µM.

For the compound `Nc1nc2cc(-c3cn(Cc4ccc(-c5nnc(C(F)F)o5)cc4)cn3)ccc2s1` [compound 300, 5-(1-(4-(5-(difluoromethyl)-1,3,4-oxadiazol-2-yl)benzyl)-1H-imidazol-4-yl)benzo[d]thiazol-2-amine], the IC50 at recombinant human HDAC1 is greater than 200 µM; at recombinant human HDAC6 it was 0.067 µM.

On to `O=c1[nH]c2cc(-c3nnn(Cc4ccc(-c5nnc(C(F)F)o5)cc4)n3)ccc2o1` [compound 225, 5-(2-(4-(5-(difluoromethyl)-1,3,4-oxadiazol-2-yl)benzyl)-2H-tetrazol-5-yl)benzo[d]oxazol-2 (3H)-one], for which the IC50 was greater than 200 µM at recombinant human HDAC1 and 0.169 µM on recombinant human HDAC6.

`Nc1cncc(-c2cn(Cc3c(F)cc(-c4nnc(C(F)F)o4)cc3F)nn2)c1` [compound 73, 5-(1-(4-(5-(difluoromethyl)-1,3,4-oxadiazol-2-yl)-2,6-difluorobenzyl)-1H-1,2,3-triazol-4-yl)pyridin-3-amine]: the IC50 is greater than 200 µM at recombinant human HDAC1 and 0.031 µM on recombinant human HDAC6.

For the compound `Nc1nccc2cc(-c3nnn(Cc4cc(F)c(-c5nnc(C(F)F)o5)cc4F)n3)ccc12` [compound 396, 6-[2-[[4-[5-(difluoromethyl)-1,3,4-oxadiazol-2-yl]-2,5-difluorophenyl]methyl]tetrazol-5-yl]isoquinolin-1-amine], the IC50 at recombinant human HDAC1 amounted to 1000 µM; at recombinant human HDAC6 it was 0.06 µM.

With `Nc1ccc(-c2cn(Cc3c(F)cc(-c4nnc(C(F)F)o4)cc3F)nn2)cn1` [compound 42, 5-(1-(4-(5-(difluoromethyl)-1,3,4-oxadiazol-2-yl)-2,6-difluorobenzyl)-1H-1,2,3-triazol-4-yl)pyridin-2-amine], the IC50 at recombinant human HDAC1 was greater than 200 µM; at recombinant human HDAC6, 0.019 µM.

Consider `FC(F)c1nnc(-c2ccc(Cn3nnc(C4(c5ccccn5)CC4)n3)cc2)o1` [compound 147, 2-(difluoromethyl)-5-(4-((5-(1-(pyridin-2-yl)cyclopropyl)-2H-tetrazol-2-yl)methyl)phenyl)-1,3,4-oxadiazole], for which the IC50 on recombinant human HDAC1 is greater than 200 µM; at recombinant human HDAC6 it was 0.063 µM.

Consider `Fc1cc(-c2nnc(C(F)F)o2)ccc1Cc1nc(-c2ccc(NC3=NCCN3)cc2)no1` [compound 420, N-(4-(5-(4-(5-(difluoromethyl)-1,3,4-oxadiazol-2-yl)-2-fluorobenzyl)-1,2,4-oxadiazol-3-yl)phenyl)-4,5-dihydro-1H-imidazol-2-amine], for which the values for the IC50 on recombinant human HDAC1 and on recombinant human HDAC6 were greater than 1000 µM and 0.012 µM, respectively.

Turning to `Nc1ccc(-c2cn(Cc3c(F)cc(-c4nnc(C(F)F)o4)cc3F)nn2)cc1` [compound 296, 4-(1-(4-(5-(difluoromethyl)-1,3,4-oxadiazol-2-yl)-2,6-difluorobenzyl)-1H-1,2,3-triazol-4-yl)aniline], the results for the IC50 at recombinant human HDAC1 and at recombinant human HDAC6 were greater than 200 µM and 0.034 µM, respectively.

For the compound `FC(F)c1nnc(-c2ccc(Cn3nnc(-c4cncc5ccccc45)n3)cc2)o1` [compound 118, 2-(difluoromethyl)-5-(4-((5-(isoquinolin-4-yl)-2H-tetrazol-2-yl)methyl)phenyl)-1,3,4-oxadiazole], the values for the IC50 on recombinant human HDAC1 and at recombinant human HDAC6 were greater than 200 µM and 0.044 µM, respectively.

Turning to `COc1ccccc1-c1cn(Cc2ccc(-c3nnc(C(F)F)o3)cc2)nn1` [compound 233, 2-(difluoromethyl)-5-(4-((4-(2-methoxyphenyl)-1H-1,2,3-triazol-1-yl)methyl)phenyl)-1,3,4-oxadiazole], the half-maximal inhibitory concentration (IC50) was greater than 200 µM on recombinant human HDAC1 and 0.2 µM on recombinant human HDAC6.

For the compound `[2H]C([2H])(c1ccc(-c2nnc(C(F)F)o2)cc1)n1cc(-c2ccc3nc(N)sc3c2)nn1` [compound 351, 6-[1-[dideuterio-[4-[5-(difluoromethyl)-1,3,4-oxadiazol-2-yl]phenyl]methyl]triazol-4-yl]-1,3-benzothiazol-2-amine], the IC50 on recombinant human HDAC1 was greater than 1000 µM; at recombinant human HDAC6, 0.021 µM.

`FC(F)c1nnc(-c2ccc(Cn3cnc(-c4ccc(NC5=NCCN5)cc4)c3)c(Cl)c2)o1` [compound 358, N-[4-[1-[[2-chloro-4-[5-(difluoromethyl)-1,3,4-oxadiazol-2-yl]phenyl]methyl]imidazol-4-yl]phenyl]-4,5-dihydro-1H-imidazol-2-amine]: the values for the IC50 on recombinant human HDAC1 and at recombinant human HDAC6 were 124 µM and 0.052 µM, respectively.

Regarding `[2H]C([2H])(c1ccc(-c2nnc(C(F)F)o2)cc1)n1cnc(-c2ccc(NC3=NCCN3)cc2)c1` [compound 368, N-[4-[1-[dideuterio-[4-[5-(difluoromethyl)-1,3,4-oxadiazol-2-yl]phenyl]methyl]imidazol-4-yl]phenyl]-4,5-dihydro-1H-imidazol-2-amine], the IC50 at recombinant human HDAC1 is greater than 1000 µM; at recombinant human HDAC6 it was 0.017 µM.

With `O=C(Nc1cc(-c2nnn(Cc3ccc(-c4nnc(C(F)F)o4)cc3)n2)ccc1O)N1CCOCC1` [compound 25, N-(5-(2-(4-(5-(difluoromethyl)-1,3,4-oxadiazol-2-yl)benzyl)-2H-tetrazol-5-yl)-2-hydroxyphenyl)morpholine-4-carboxamide], the IC50 at recombinant human HDAC1 was greater than 200 µM; at recombinant human HDAC6 it was 0.007 µM.

In the case of `CCNc1ncc2cc(-c3cn(Cc4ccc(-c5nnc(C(F)F)o5)c(F)c4)nn3)ccc2n1` [compound 395, 6-(1-(4-(5-(difluoromethyl)-1,3,4-oxadiazol-2-yl)-3-fluorobenzyl)-1H-1,2,3-triazol-4-yl)-N-ethylquinazolin-2-amine], the IC50 came to 1000 µM at recombinant human HDAC1 and 0.857 µM at recombinant human HDAC6.

In the case of `Cn1c(N)nc2cc(-c3cn(Cc4ccc(-c5nnc(C(F)F)o5)cc4)cn3)ccc21` [compound 329, 5-[1-[[4-[5-(difluoromethyl)-1,3,4-oxadiazol-2-yl]phenyl]methyl]imidazol-4-yl]-1-methylbenzimidazol-2-amine], the IC50 is greater than 1000 µM at recombinant human HDAC1 and 0.027 µM on recombinant human HDAC6.

Turning to `Nc1ccc(-c2cn([C@H](CN3CCCC3)c3ccc(-c4nnc(C(F)F)o4)cc3)nn2)cn1` [compound 313, 5-[1-[(1S)-1-[4-[5-(difluoromethyl)-1,3,4-oxadiazol-2-yl]phenyl]-2-pyrrolidin-1-ylethyl]triazol-4-yl]pyridin-2-amine], the IC50 was greater than 1000 µM on recombinant human HDAC1 and 0.308 µM on recombinant human HDAC6.

As for `Cn1c(N)nc2cc(-c3cn(Cc4cc(F)c(-c5nnc(C(F)F)o5)cc4F)nn3)ccc21` [compound 350, 5-[1-[[4-[5-(difluoromethyl)-1,3,4-oxadiazol-2-yl]-2,5-difluorophenyl]methyl]triazol-4-yl]-1-methylbenzimidazol-2-amine], the values for the concentration for half-maximal inhibition (IC50) at recombinant human HDAC1 and on recombinant human HDAC6 were greater than 1000 µM and 0.022 µM, respectively.

With `Nc1nc2cc(-c3cn(Cc4ccc(-c5nnc(C(F)F)o5)cn4)cn3)ccc2s1` [compound 322, 5-[1-[[5-[5-(difluoromethyl)-1,3,4-oxadiazol-2-yl]pyridin-2-yl]methyl]imidazol-4-yl]-1,3-benzothiazol-2-amine], the IC50 was greater than 1000 µM at recombinant human HDAC1 and 0.017 µM on recombinant human HDAC6.

For `Fc1c(Cn2nnc(-c3cccc(-c4nc5c([nH]4)CCNC5)c3)n2)ccc(-c2nnc(C(F)F)o2)c1F` [compound 355, 2-(difluoromethyl)-5-[2,3-difluoro-4-[[5-[3-(4,5,6,7-tetrahydro-1H-imidazo[4,5-c]pyridin-2-yl)phenyl]tetrazol-2-yl]methyl]phenyl]-1,3,4-oxadiazole], the half-maximal inhibitory concentration (IC50) on recombinant human HDAC1 was greater than 1000 µM; on recombinant human HDAC6 it was 0.062 µM.

These data come from patent US20230286970A1, “NOVEL OXADIAZOLE-BASED SELECTIVE HDAC6 INHIBITORS” (ITALFARMACO S.P.A., priority 2020, published 2023).
